{
  "source": "patent US10501453B2",
  "about": "“Benzothiazole or benzoxazole compounds as SUMO activators” (Icahn School of Medicine at Mount Sinai, priority 2012, dated 2019)",
  "key": {"SERCA2a": {"system": "SERCA2a", "assay": "Endogenous SERCA2a SUMOylation profiling and protein expression in ARVMs", "format": "cell-based, rat", "description": "Calcium-tolerant adult rat ventricular myocytes (ARVMs) were obtained from hearts of male Sprague-Dawley rats (250 to 300 g). The heart was excised and perfused with a standard enzymatic technique. ARVMs were plated on multi-chambered plates or culture dishes, pre-coated with laminin 2 μg/cm^2, at a density of 10^5 cells/cm^2 in DMEM without L-glutamine supplemented with 10 mmol/l HEPES, 3.7 mg/ml NaHCO3, 1 mg/ml glucose, 0.11 mg/ml sodium pyruvate, 2 mg/ml bovine serum albumin, 2 mmol/1 L-camitine, 5 mmol/1 creatine, 5 mmol/1 taurine, 1% penicillin-streptomycin, and 1% gentamycin. Following isolation, cells were allowed to settle for 1 hour. Cultures were incubated at 37° C., in an atmosphere of 5% CO2-95% air. Fresh medium was added gently as medium was being drawn off until the cultures had been thoroughly washed. Only quiescent, rod-shape cardiac myocytes were selected for IonOptix experiments.\nEqual amounts of protein from either small molecule treated or DMSO treated cells or immunoprecipitates were resolved by 7.5% SDS-PAGE and transferred to nitrocellulose membranes (Bio-Rad, catalog no. 162-0112). The membranes were blocked for 1 hour at room temperature with 5% non-fat milk (Cell Signaling Technology Inc., catalog no. 9999) in TBST (10 mM Tris-HCl, 150 mM NaCl, and 0.05% tween-20, pH 8.0). […]\nThe effects of the Example compound was examined on isolated rat cardiomyocytes shortening and relaxation parameters. […] Effects of Example 1 on mechanical properties of the ARVMs were assessed using a video-based edge detection system (IonOptix). The time constant of the increase of force during the stretch decreased (tau), percentage of peak shortening (PS), maximal rate of relaxation and contraction were analyzed at 24 hrs postincubation of the compounds in culture media (N=10 ARVMs). The mechanical data were analyzed with student's t-test (FIG. 2A, P<0.05 compared to the DMSO treated cells). SERCA2a SUMOylation profiling was analyzed in a same set of ARVMs (FIG. 2B, WCL, whole cell lysates; S-SERCA2a, SUMOylated SERCA2a). […]"}, "SUMO E2 enzyme, UBC9": {"molecular_target": "SUMO E2 enzyme, UBC9", "assay": "Transfer of activated SUMO-1 from SUMO E1 to SUMO E2 enzyme UBC9 (gel-based assay)", "format": "biochemical"}, "sham-operated animals": {"system": "sham-operated animals", "assay": "Hemodynamics in sham-operated mice", "format": "in vivo, mouse", "description": "Hemodynamics were measured to evaluate the acute effect of Example 1 infusion on the cardiac function of the mouse model of HF. In the first set of experiments, mice were exposed to pressure overload by thoracic aortic constriction (TAC) or sham operation and received either EXAMPLE 1 or vehicle. At two months post-TAC animals developed HF. […] In addition, the positive chronotropic effect of dobutamine was no longer observed in TAC mice (FIG. 9). Following cannulation of the carotid artery and external jugular vein, infusion of EXAMPLE 1 or vehicle was performed as described in Method section. Pressure and conductance catheters were introduced in the LV through the carotid artery. Pressure and volume measurements were made simultaneously and pressure volume curves were constructed as the vehicle or EXAMPLE 1 were infused.\nHemodynamic data were obtained in 1 mg of EXAMPLE 1-treated failing hearts at 30 min and 60 min after compound treatment. […] The improvement occurred within 30 minutes after treatment and maintained for 60 minutes after treatment. […] The effects of EXAMPLE 1 on various hemodynamic parameters are shown in FIG. 9b and Table S1. dP/dt max increased with increasing concentration of EXAMPLE 1 while Tau a parameter of relaxation decreased an indication of enhanced relaxation."}, "Serca2 KO mice": {"system": "Serca2 KO mice", "assay": "Hemodynamics in Serca2 knockout mice", "format": "in vivo, mouse", "details": "before vs after infusion", "excerpt": "Adult mice with an inducible cardiomyocyte-specific excision of the Atp2a2 (Serca2) gene (Serca2 KO) were used. Four weeks after induction of Serca2 gene excision, the mice display a substantial reduction in systolic and diastolic function (FIG. 11a). […] The decay constant, tau value was nearly 1.3-fold (Serca2 KO, […]; WT, […], p<0.001) larger in Serca2 KO mice compared with WT control (FIG. 11b). The expression of SERCA2a was completely lacking in Serca2 KO mice (FIG. 11c).\nHemodynamic parameters obtained before and after infusion of Example 1 were compared. […] The dose-dependent enhancement of cardiac contractility disappeared in Serca2 KO mice (FIG. 6b)."}, "[1]": {"assay": "Pharmacokinetic analysis in mice", "details": "mouse, in vivo, ip; murine model, 10 mg/kg intraperitoneal dose", "description": "FIG. 12 depicts the pharmacokinetic analysis of the compound of Example 1 in mice at a 10 mg/kg intraperitoneal dose."}},
  "data": [
    {"smiles": "COc1ccc(-c2nnc(Nc3nc4c(OC)cccc4s3)o2)cc1", "note": "[Example 1, N-(4-methoxybenzo[d]thiazol-2-yl)-5-(4-methoxyphenyl)-1,3,4-oxadiazol-2-amine]", "values": [
      {"measurement": "levels of SERCA2a SUMOylation with increasing amount of compound", "setting": "SERCA2a; dose response", "result": "increased levels of SERCA2a SUMOylation"},
      {"measurement": "protein expression levels of E1, E2 enzymes, SERCA2a and SUMO-1", "setting": "SERCA2a; dose response", "result": "not changed"},
      {"measurement": "endogenous SERCA2a SUMOylation", "setting": "SERCA2a; isolated rodent adult cardiomyocytes", "result": "significantly increased"},
      {"measurement": "EC50", "setting": "SUMO E2 enzyme, UBC9", "result": "10.2 ± 0.28", "unit": "µM"},
      {"measurement": "hemodynamic parameters in sham-operated groups", "setting": "sham-operated animals", "result": "No statistically significant changes"},
      {"measurement": "hemodynamic parameters in Serca2 KO mice", "setting": "Serca2 KO mice", "result": "did not induce any improvements"},
      {"measurement": "Cmax", "setting": "[1]", "result": 2240, "unit": "nM"},
      {"measurement": "half-life", "setting": "[1]", "result": 1.09, "unit": "h"}
    ]}
  ]
}
